# Measured values taken from publication PMC4795166, “Design of a MCoTI-Based Cyclotide with Angiotensin (1-7)-Like Activity” (Molecules, 2016).
# Target: T1, recombinant human MAS1 (Homo sapiens, UniProt P04201)
# T1 construct: expressed in transfected cells; host or cells: CHO cells stably transfected with pTEJ-8 vector
# T1 sequence (P04201 1-325): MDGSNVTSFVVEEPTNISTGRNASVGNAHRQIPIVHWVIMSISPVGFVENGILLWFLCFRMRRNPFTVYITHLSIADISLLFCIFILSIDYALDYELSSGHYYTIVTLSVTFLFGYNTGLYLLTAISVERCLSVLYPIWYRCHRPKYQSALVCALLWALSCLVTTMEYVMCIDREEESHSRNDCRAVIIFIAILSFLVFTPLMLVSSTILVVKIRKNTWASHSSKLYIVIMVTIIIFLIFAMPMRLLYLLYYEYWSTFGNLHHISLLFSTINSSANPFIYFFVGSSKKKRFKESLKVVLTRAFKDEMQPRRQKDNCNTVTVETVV
# Assay: MAS1 receptor activation, cell-based fluorescence assay of NO release in CHO cells
# Settings: absence of antagonist, MAS1 stably transfected CHO cells, 2 h incubation, two experiments
# Description: Next, we tested the ability of cyclotide MCo-AT1-7 to activate the MAS1 receptor using CHO cells stably transfected with pTEJ-8 vector expressing recombinant human MAS1 in a cell-based fluorescence assay to detect the amount of NO release (Figure 5). […] The activity of the cyclotide MCo-AT1-7 was estimated to be ≈90% of that of peptide AT1-7 at 10 nM in this assay.
# CHO cells stably transfected with pTEJ-8 vector expressing recombinant human MAS1 clone are grown to confluency. After washing, cells were incubated for a short time in 700 µL of supplemented Tyrode’s salts containing 10 µM 2-phenyl-4,4,5,5-tetramethylimidazoline-1-oxyl-3-oxide (PTIO), 100 µM 2,6-diaminonaftalene (DAN), and 1 mM L-arginine. When using antagonist for competition assays, cells are exposed to MAS1 antagonist A779 (D-Ala^7-AT 1-7) at 0.1 µM for 15 min before addition of the cyclotides to be tested. Different concentrations of the cyclotides to be analyzed are added to the cell medium and the plates are agitated for 1 min before being placed into the incubator for 2 h. After 2 h, the cellular supernatants are transferred to opaque 96 well plates, and the amount of released NO is measured by fluorescence (λex = 380 nm, λem = 425 nm).
compound,measurement,value
"CC[C@H](C)[C@H](NC(=O)[C@H](Cc1ccc(O)cc1)NC(=O)[C@@H](NC(=O)[C@H](CCCNC(=N)N)NC(=O)[C@@H](N)CC(=O)O)C(C)C)C(=O)N[C@@H](Cc1c[nH]cn1)C(=O)N1CCC[C@H]1C(=O)O [AT1-7, angiotensin (1-7)]",MAS1 activation: increase of intracellular NO concentration,increase the intracellular concentration of NO in a dose dependent manner
